Target: Bovine Serum Albumin (BSA) (Bos taurus, UniProt P02769)
Experiment: tryptophan fluorescence quenching titration
Type: binding
Settings: 298 K; phosphate buffer, pH not given; 10 μM BSA stock; double-log

Bovine Serum Albumin (BSA), sequence (P02769 25-607): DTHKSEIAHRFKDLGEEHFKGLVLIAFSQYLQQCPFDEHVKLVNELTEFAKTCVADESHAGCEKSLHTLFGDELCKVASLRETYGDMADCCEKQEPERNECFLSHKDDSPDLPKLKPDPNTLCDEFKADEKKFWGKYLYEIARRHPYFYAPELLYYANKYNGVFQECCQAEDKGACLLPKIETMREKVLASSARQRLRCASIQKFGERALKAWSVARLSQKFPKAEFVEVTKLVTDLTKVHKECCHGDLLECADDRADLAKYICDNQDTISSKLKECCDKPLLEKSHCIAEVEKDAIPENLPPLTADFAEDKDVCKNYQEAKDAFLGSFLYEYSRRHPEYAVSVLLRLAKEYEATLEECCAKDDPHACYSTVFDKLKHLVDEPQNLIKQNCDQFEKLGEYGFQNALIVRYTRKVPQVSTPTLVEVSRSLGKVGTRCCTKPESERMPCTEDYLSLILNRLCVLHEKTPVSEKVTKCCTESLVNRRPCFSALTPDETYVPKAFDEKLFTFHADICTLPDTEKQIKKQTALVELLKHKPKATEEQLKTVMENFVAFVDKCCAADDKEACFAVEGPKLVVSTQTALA

Row | Structure (SMILES) | Kb
1 | CC=NNC(=O)Cc1ccccc1 [EPAH, N′-ethylidene-2-phenylacetohydrazide] | 2.47e+06 M⁻¹
2 | O=C(Cc1ccccc1)NN=Cc1ccco1 [FMPAH, N’-(furan-2-ylmethylene)-2-phenylacetohydrazide] | 44500 M⁻¹
3 | O=C(Cc1ccccc1)NN=Cc1ccccc1O [HBPAH, N'-(2-hydroxybenzylidene)-2-phenylacetohydrazide] | 683000 M⁻¹
4 | O=C(Cc1ccccc1)N/N=C/C=C/c1ccccc1 [PPAH, 2-Phenyl-N'-(3-phenylallylidene)acetohydrazide] | 1.75e+08 M⁻¹
